Where a name gives a salt, the structure may show the parent alone.
What was measured:
HepG2 cells [1] = test: Apoptosis by AO/EB staining (HCS); type: cell-based, human; conditions: HepG2, 3, 6, 12 μM, 48 h
Description: To appraise if novel naphthalimide-polyamine conjugates induce cell apoptosis, morphological study was applied after HepG2 cells were stained with AO/EB. […] To furnish more credible information about the apoptosis of HepG2 cells induced by compound 11e, we used the high content screening (HCS) technique to detect related apoptosis indicators. Mitochondria are vital cell organelles in the process of transmitting apoptosis signals, whereas the mitochondrial membrane potential (MMP) is a critical parameter related to mitochondrial function in cells. As a MMP specific cationic fluorescent dye, Rh123 is used to measure the change of MMP, which accumulates in healthy mitochondria with intact membrane potential and is absent in the depolarized mitochondria. […] Thus, the lysosomal mass/pH (Lys/pH) variation was detected by a basic fluorescent probe Lyso-Tracker Red which selectively accumulates in acidic lysosomes during cytotoxicity occurs.
HepG2 cells were seeded in 96 well plates (6 × 10^3 cells/well), cultured for 24 h to obtain a confluent monolayer and then treated with various concentrations of tested compounds for 48 h. […] Images were obtained on the High Content Screening (HCS, ArrayScan, Thermo Scientific) reader using the Target Activation BioApplication software (Thermo Scientific).

HepG2 cells [2] = test: Lysosomal mass/pH, Lyso-Tracker Red (HCS); type: cell-based, human; conditions: HepG2, 3, 6, 12 μM, 48 h
Description: (§1) To appraise if novel naphthalimide-polyamine conjugates induce cell apoptosis, morphological study was applied after HepG2 cells were stained with AO/EB. […] To furnish more credible information about the apoptosis of HepG2 cells induced by compound 11e, we used the high content screening (HCS) technique to detect related apoptosis indicators. Mitochondria are vital cell organelles in the process of transmitting apoptosis signals, whereas the mitochondrial membrane potential (MMP) is a critical parameter related to mitochondrial function in cells. As a MMP specific cationic fluorescent dye, Rh123 is used to measure the change of MMP, which accumulates in healthy mitochondria with intact membrane potential and is absent in the depolarized mitochondria. Lysosomes, as cellular targets in cancer therapy, participate in various cell death profiles such as apoptosis and senescence. Thus, the lysosomal mass/pH (Lys/pH) variation was detected by a basic fluorescent probe Lyso-Tracker Red which selectively accumulates in acidic lysosomes during cytotoxicity occurs.
(§2) HepG2 cells were seeded in 96 well plates (6 × 10^3 cells/well), cultured for 24 h to obtain a confluent monolayer, and then treated with various concentrations of tested compounds for 48 h. […] Images were acquired on the ArrayScan HCS reader using the Target Activation BioApplication software.

HepG2 cells [3] = test: MTT cytotoxicity, HepG2; type: cell-based, human; conditions: Homo sapiens, HepG2, 48 h, mean of three experiments
QSG-7701 cells = test: MTT cytotoxicity, QSG-7701 normal hepatocyte; type: cell-based; conditions: QSG7701, 48 h, normal hepatocyte cell line
HCT-116 cells = test: MTT cytotoxicity, HCT-116; type: cell-based, human; conditions: Homo sapiens, HCT-116, 48 h, mean of three experiments
K562 cells = test: MTT cytotoxicity, K562; type: cell-based, human; conditions: Homo sapiens, K562, 48 h, mean of three experiments
[4] = tested on: H22 cells lung metastasis; test: H22 lung metastasis model; type: in vivo, Kunming mice; conditions: 11e 1 mg/kg; for Metastatic Focus (No.) / Inhibition Rate (lung metastasis): amonafide 5 mg/kg i.v., 7 consecutive days; for Metastatic Focus (No.): control 110.04 ± 15.38; for No. Dead: amonafide 5 mg/kg, lung metastasis model; for Inhibition Rate (lung metastasis): vs normal saline
Description: Metastasis is the process by which tumors spread from the primary organ in which they arise to other sites in the body. In most cases, tumors that stay confined to one organ will not be fatal, tumors that have spread to other organs have a greater potential for causing harm. To test whether 11e was effective against an established lung metastasis, we injected H22 cells intravenously into 24 Kunming mice (5 × 10^6 cells each mouse). To ensure that all mice bore actively growing lung tumors before the drug treatment, pulmonary cancer was allowed to develop for 10 days.
H22 cells (5 × 10^6 cells per mouse) for Kunming mice were injected intravenous (i.v.) through the tail vein for tumor passive metastasis. To ensure all mice bore actively growing lung tumors before the drug treatment, pulmonary metastasis was allowed to develop for 10 days. […] On day 18, mice were killed by cervical vertebra dislocation, and lungs were removed and weighed, and then fixed in Bouin’s fluid. After the lungs were fixed, lung metastases nodus was numbered.

[5] = tested on: H22 mouse hepatocellular carcinoma; test: Subcutaneous H22 solid tumor growth inhibition; type: in vivo, Kunming mice; conditions: 11e 1 mg/kg, amonafide 5 mg/kg; for Inhibition Rate (tumor weight) / Tumor Weight: caudal vein, 7 consecutive days; for Inhibition Rate (tumor weight): vs normal saline; for Tumor Weight: control 2.17 ± 0.22 g; for No. Dead: solid tumor model
Description: However, few in vivo studies provided limited messages for rational design of the conjugates in comparison to the plentiful in vitro data. Indeed, there are significant discrepancies between in vitro and in vivo experiments in many cases. In vivo trials, based on preliminary in vitro screens, provide more valuable messages for further drug development. To further evaluate the antitumor activity of 11e in vivo, we chose three H22 (mice hepatoma cell line) tumor transplant models: solid tumor (tumor growth inhibition evaluation), ascites tumor (live time evaluation), and pulmonary metastasis tumor (tumor metastasis evaluation).
All animal care and experimentation conformed to the Guide for the Care and Use of Laboratory Animals published by Henan University (HUSOM2016-162). For solid tumor development, 30 male Kunming mice (Laboratory Animal Center of Henan, Zhengzhou, China) aged 5 weeks (weighing 18–22 g) were injected subcutaneously with 2 × 10^6 H22 cells. […] On day 16, the mice were killed by cervical vertebra dislocation, and solid tumors were removed and weighed. The inhibitory rate was calculated as follows: inhibitory rate (%) = [(A − B)/A] × 100, where A was the mean tumor weight of the control group and B was that of the drug treated or positive group.

MDA-MB-231 cells = test: MTT cytotoxicity, MDA-MB-231; type: cell-based; conditions: Homo sapiens, 48 h, mean of three experiments
HepG2 cells [6] = test: Mitochondrial membrane potential, Rh123 (HCS); type: cell-based, human; conditions: HepG2, 3, 6, 12 μM, 48 h
Description: as §1, §2

HepG2 cells [7] = test: ROS generation, DCFH-DA (HCS); type: cell-based, human; conditions: HepG2, 3, 6, 12 μM, 48 h
Procedure: It is known that polyamine conjugates may produce reactive oxygen species (ROS). The elevated ROS could bring corresponding influences on MMP loss and LYS/pH destabilization, which generally activates the cell death. Therefore, the ROS generation was detected by the DCFH-DA (2′,7′-dichlorodihydrofluorescein diacetate) experiment.
HepG2 cells were seeded in 96 well plates (6 × 10^3 cells/well), cultured for 24 h to obtain a confluent monolayer, and then treated with various concentrations of tested compounds for 48 h. Cells were incubated with Rh123 (0.25 nM), or DCFH-DA (10 μM), or Lyso-Tracker Red (50 nM ) in the dark at 37 °C for 30 min. for the measurement of mitochondrial membrane potential (MMP), or reactive oxygen species (ROS) or lysosomal mass/pH staining, respectively. After being washed with PBS to remove excess dyes, cells were further stained with the nuclear dye Hoechst 33,342 (10 μM) in the dark at 37 °C for 20 min. Images were acquired on the ArrayScan HCS reader using the Target Activation BioApplication software.

H22 cells = test: Survival time in mice bearing H22 cells (ascites); type: in vivo, Kunming mice; conditions: 11e 1 mg/kg, amonafide 5 mg/kg i.v.; for median survival time (MST): 7 consecutive days, control 12.75 ± 2.5 days
Procedure: Impacts of 11e on survival time in H22-bearing mice were evaluated by measuring the extension of the lifespan. The median survival time (MST) in control mice was (12.75 ± 2.5) days.
For calculation of the survival time, 30 male Kunming mice were inoculated via intraperitoneal (i.p.) injection with 1 × 10^6 H22 cells/mouse on day 0 and were randomly divided into three groups. […] The median survival time (MST) for each group was observed, and the antitumor activity of the drug was evaluated by measuring the increase of the lifespan. The extended lifespan rate was calculated as follows: extend rate (%) = (MST treated group/MST control group) × 100.

[8] = Systemic toxicity (body weight, organ index); conditions: 11e 1 mg/kg, amonafide 5 mg/kg i.v.
Procedure: However, there are few reports about the systemic toxicology of naphthalimide-polyamine conjugates to support the above hypothesis. […] At the same time, the body weight was monitored to detect the dose-limited toxicity. On day 8, these mice were killed by cervical vertebra, and the organs and tissues, including samples of heart, liver, lung, kidney, spleen and thymus, were taken for the inspection of systemic toxicity.
Mice (8 per group) received 11e (1 mg/kg) and amonfide (5 mg/kg, i.v.) for 7 consecutive days and then were sacrificed. Heart, liver, kidney, lung and spleen were removed and weighed. The organ index was investigated for systemic toxicity evaluation: organ index (%) = (organ weight/body weight) × 100.

Structure (SMILES) | apoptosis induction (AO/EB) (HepG2 cells [1]) | Lyso-Tracker Red fluorescence (lysosomal mass/pH) (HepG2 cells [2]) | IC50 (HepG2 cells [3]) [µM] | IC50 (QSG-7701 cells) [µM] | IC50 (HCT-116 cells) [µM] | IC50 (K562 cells) [µM] | Metastatic Focus (No.) [4] | No. Dead [4] | Inhibition Rate (tumor weight) [5] [%] | Tumor Weight [5] [g] | No. Dead [5] | IC50 (MDA-MB-231 cells) [µM] | green fluorescence of Rh123 (MMP) (HepG2 cells [6]) | ROS generation (DCFH-DA) (HepG2 cells [7]) | life span increase vs control group (H22 cells) [fold] | median survival time (MST) (H22 cells) [days] | Inhibition Rate (lung metastasis) [4] [%] | Inhibition Rate (lung metastasis) ([4]; listed as amonafide) [%] | liver and spleen index ([8]; 7 days, compared to controls) | body weight change ([8]; tumor-bearing mice, 7 consecutive days)
Cl.Cl.Cl.Cl.NCCCNCCCCNCCCNCC(=O)NCCCN1C(=O)c2cccc3cccc(c23)C1=O [11e, 2-(3-(4-(3-Aminopropylamino)butylamino)propylamino)-N-(3-(1,3-dioxo-1H-benzo[de]isoquinolin-2(3H)-yl)propyl)acetamide tetrahydrochloride] | obvious apoptosis | remarkable accruement of red fluorescence | 6.33 | 53.9 | 5.12 | 2.86 | 40.25 ± 8.15 | 0/8 | 70.92 | 0.63 ± 0.21 | 0/9 | 12 | significantly decreased in a dose-dependent manner | apparently increased ROS | 2.41 | 30.75 ± 4.4 | – | – | – | –
NCCCCNCCCCNCCCCNCC(=O)NCCCN1C(=O)c2cccc3cccc(c23)C1=O [11f, 2-(4-(4-(4-Aminobutylamino)butylamino)butylamino)-N-(3-(1,3-dioxo-1H-benzo[de]isoquinolin-2(3H)-yl)propyl)acetamide tetrahydrochloride] | – | – | > 50 | 50.6 | > 50 | 26.2 | – | – | – | – | – | 57.1 | – | – | – | – | – | – | – | –
NCCCNCCCNCCCN1C(=O)c2ccc(-c3ccccc3)cc2C1=O [17b, 5-Phenyl-2-{3-[3-(3-aminopropylamino)-propylamino]propyl}isoindoline-1,3-dione trihydrochloride] | – | – | > 50 | > 50 | > 50 | 28.2 | – | – | – | – | – | – | – | – | – | – | – | – | – | –
NCCCNCCCCNCCCN1C(=O)c2ccc(-c3ccccc3)cc2C1=O [17c, 5-Phenyl-2-{3-[4-(3-aminopropylamino)-amino]propyl}isoindoline-1,3-dione trihydrochloride] | – | – | > 50 | > 50 | > 50 | > 50 | – | – | – | – | – | – | – | – | – | – | – | – | – | –
NCCCCNCCCCNCCCCN1C(=O)c2ccc(-c3ccccc3)cc2C1=O [17d, 5-Phenyl-2-{4-[4-(4-aminobutylamino)-butylamino]butyl}isoindoline-1,3-dione trihydrochloride] | – | – | > 50 | > 50 | > 50 | > 50 | – | – | – | – | – | – | – | – | – | – | – | – | – | –
CN(C)CCN1C(=O)c2cccc3cc(N)cc(c23)C1=O [Amonafide, amonafide, reference compound] | – | – | 6.57 | 55.5 | 15.4 | 6.31 | 65.25 ± 13.82 | 0/8 | 43.79 | 1.22 ± 0.13 | 0/9 | 7.98 | – | – | 1.53 | 19.5 ± 3.6 | 40.70 | 40.7 | obviously decreased | some degree of weight loss
